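Following 48 hours of exposure in 96-well plates, responses at five concentrations were used to interpolate endpoints linearly. The concentration for 50% growth inhibition is given as GI50. At the TGI there is no net growth.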
Key:
Assay in all cases: growth of human tumour cells (NCI), 48 h; in the data active means GI50 below about 0.43 µM; inactive means the rest
A498 renal = system: A498 renal
A549 NSCLC = system: A549 NSCLC
ACHN renal = system: ACHN renal
BT-549 breast = system: BT-549 breast
CAKI-1 renal = system: CAKI-1 renal
CCRF-CEM leukemia = system: CCRF-CEM leukemia
COLO 205 colon = system: COLO 205 colon
DU-145 prostate = system: DU-145 prostate
EKVX NSCLC = system: EKVX NSCLC
HCC-2998 colon = system: HCC-2998 colon
HCT-116 colon = system: HCT-116 colon
HCT-15 colon = system: HCT-15 colon
HL-60(TB) leukemia = system: HL-60(TB) leukemia
HOP-62 NSCLC = system: HOP-62 NSCLC
HOP-92 NSCLC = system: HOP-92 NSCLC
HS 578T breast = system: HS 578T breast
HT29 colon = system: HT29 colon
IGROV1 ovarian = system: IGROV1 ovarian
K-562 leukemia = system: K-562 leukemia
KM12 colon = system: KM12 colon
LOX IMVI melanoma = system: LOX IMVI melanoma
M14 melanoma = system: M14 melanoma
MCF7 breast = system: MCF7 breast
MDA-MB-231 breast = system: MDA-MB-231 breast
MDA-MB-435 = system: MDA-MB-435
MOLT-4 leukemia = system: MOLT-4 leukemia
NCI-H226 lung = system: NCI-H226 lung
NCI-H23 lung = system: NCI-H23 lung
NCI-H460 lung = system: NCI-H460 lung
NCI-H522 lung = system: NCI-H522 lung
NCI/ADR-RES ovarian = system: NCI/ADR-RES ovarian
OVCAR-3 ovarian = system: OVCAR-3 ovarian
OVCAR-4 ovarian = system: OVCAR-4 ovarian
OVCAR-5 ovarian = system: OVCAR-5 ovarian
OVCAR-8 ovarian = system: OVCAR-8 ovarian
PC-3 prostate = system: PC-3 prostate
RPMI-8226 leukemia = system: RPMI-8226 leukemia
RXF 393 renal = system: RXF 393 renal
SF-268 CNS = system: SF-268 CNS
SF-295 CNS = system: SF-295 CNS
SF-539 CNS = system: SF-539 CNS
SK-MEL-2 melanoma = system: SK-MEL-2 melanoma
SK-MEL-28 melanoma = system: SK-MEL-28 melanoma
SK-MEL-5 melanoma = system: SK-MEL-5 melanoma
SK-OV-3 ovarian = system: SK-OV-3 ovarian
SN12C renal = system: SN12C renal
SNB-19 CNS = system: SNB-19 CNS
SNB-75 CNS = system: SNB-75 CNS
SW-620 colon = system: SW-620 colon
T-47D breast = system: T-47D breast
TK-10 renal = system: TK-10 renal
U251 CNS = system: U251 CNS
UACC-257 melanoma = system: UACC-257 melanoma
UACC-62 melanoma = system: UACC-62 melanoma
UO-31 renal = system: UO-31 renal
786-0 renal = system: 786-0 renal

COc1ccccc1NC(=O)c1ccc(NC2=C(Cl)C(=O)N(Cc3ccccc3)C2=O)cc1
16.3 µM: TGI (MDA-MB-231 breast)
89.1 µM: TGI (TK-10 renal)
40.5 µM: TGI (MDA-MB-435)
active: GI50 (CCRF-CEM leukemia) 77.7 nM | GI50 (RPMI-8226 leukemia) 25.7 nM | GI50 (UACC-257 melanoma) 228 nM
36.2 µM: TGI (HCT-116 colon)
90.4 µM: TGI (A549 NSCLC)
15.4 µM: TGI (HCC-2998 colon)
78.8 µM: TGI (RXF 393 renal)
24.5 µM: TGI (UACC-62 melanoma)
2950 nM: TGI (CAKI-1 renal)
86.3 µM: TGI (A498 renal)
inactive: GI50 (A498 renal) 27.8 µM | GI50 (A549 NSCLC) 10.5 µM | GI50 (ACHN renal) 33.4 µM | GI50 (BT-549 breast) 1460 nM | GI50 (CAKI-1 renal) 1480 nM | GI50 (COLO 205 colon) 44.9 µM | GI50 (DU-145 prostate) 2010 nM | GI50 (EKVX NSCLC) 29.1 µM | GI50 (HCC-2998 colon) 4.2 µM | GI50 (HCT-116 colon) 12.9 µM | GI50 (HCT-15 colon) 14.7 µM | GI50 (HL-60(TB) leukemia) 3.36 µM | GI50 (HOP-62 NSCLC) 26.8 µM | GI50 (HOP-92 NSCLC) 3.68 µM | GI50 (HS 578T breast) 37.5 µM | GI50 (HT29 colon) 36.8 µM | GI50 (IGROV1 ovarian) 1360 nM | GI50 (K-562 leukemia) 4.21 µM | GI50 (KM12 colon) 26.6 µM | GI50 (LOX IMVI melanoma) 10.3 µM | GI50 (M14 melanoma) 17.6 µM | GI50 (MCF7 breast) 7.77 µM | GI50 (MDA-MB-231 breast) 2820 nM | GI50 (MDA-MB-435) 11.2 µM | GI50 (MOLT-4 leukemia) 3.31 µM | GI50 (NCI-H226 lung) 6.84 µM | GI50 (NCI-H23 lung) 12 µM | GI50 (NCI-H460 lung) 33.4 µM | GI50 (NCI-H522 lung) 5.09 µM | GI50 (NCI/ADR-RES ovarian) 15.2 µM | GI50 (OVCAR-3 ovarian) 10.2 µM | GI50 (OVCAR-4 ovarian) 29.3 µM | GI50 (OVCAR-5 ovarian) 44.1 µM | GI50 (OVCAR-8 ovarian) 2270 nM | GI50 (PC-3 prostate) 976 nM | GI50 (RXF 393 renal) 19.9 µM | GI50 (SF-268 CNS) 25.4 µM | GI50 (SF-295 CNS) 18.2 µM | GI50 (SF-539 CNS) 16.6 µM | GI50 (SK-MEL-2 melanoma) 11.2 µM | GI50 (SK-MEL-28 melanoma) 30.3 µM | GI50 (SK-MEL-5 melanoma) 16 µM | GI50 (SK-OV-3 ovarian) > 100 µM | GI50 (SN12C renal) 10.3 µM | GI50 (SNB-19 CNS) 48.9 µM | GI50 (SNB-75 CNS) 37.7 µM | GI50 (SW-620 colon) 5.29 µM | GI50 (T-47D breast) 41.2 µM | GI50 (TK-10 renal) 40.3 µM | GI50 (U251 CNS) 29.3 µM | GI50 (UACC-62 melanoma) 877 nM | GI50 (UO-31 renal) 1700 nM
38.8 µM: TGI (HCT-15 colon)
63.4 µM: TGI (SF-295 CNS)
39.5 µM: TGI (SN12C renal)
32.9 µM: TGI (NCI-H226 lung) | TGI (OVCAR-8 ovarian)
5.75 µM: TGI (PC-3 prostate)
29.9 µM: TGI (SK-MEL-2 melanoma)
363 nM: TGI (RPMI-8226 leukemia)
48.1 µM: TGI (NCI/ADR-RES ovarian)
43.5 µM: TGI (HL-60(TB) leukemia)
11 µM: TGI (BT-549 breast)
21.9 µM: TGI (UACC-257 melanoma)
35 µM: TGI (LOX IMVI melanoma)
41.2 µM: TGI (SF-539 CNS)
86 µM: TGI (KM12 colon)
3.2 µM: TGI (UO-31 renal)
> 100 µM: TGI (ACHN renal) | TGI (CCRF-CEM leukemia) | TGI (COLO 205 colon) | TGI (EKVX NSCLC) | TGI (HS 578T breast) | TGI (HT29 colon) | TGI (K-562 leukemia) | TGI (MOLT-4 leukemia) | TGI (NCI-H460 lung) | TGI (OVCAR-4 ovarian) | TGI (OVCAR-5 ovarian) | TGI (SF-268 CNS) | TGI (SK-MEL-28 melanoma) | TGI (SK-OV-3 ovarian) | TGI (SNB-19 CNS) | TGI (SNB-75 CNS) | TGI (SW-620 colon) | TGI (T-47D breast) | TGI (U251 CNS)
28 µM: TGI (DU-145 prostate)
22.6 µM: TGI (NCI-H522 lung) | TGI (OVCAR-3 ovarian)
54 µM: TGI (MCF7 breast)
45.3 µM: TGI (SK-MEL-5 melanoma)
40.4 µM: TGI (M14 melanoma)
63.5 µM: TGI (HOP-62 NSCLC)
25.9 µM: TGI (NCI-H23 lung)
4.29 µM: TGI (IGROV1 ovarian)
45.4 µM: TGI (HOP-92 NSCLC)

O=C(NCCCCN(CCCNC(=O)C(F)(F)F)Cc1ccccc1)C(F)(F)F
> 100000 nM: TGI (RPMI-8226 leukemia)
> 100 µM: TGI (786-0 renal) | TGI (A498 renal) | TGI (A549 NSCLC) | TGI (ACHN renal) | TGI (BT-549 breast) | TGI (CCRF-CEM leukemia) | TGI (COLO 205 colon) | TGI (DU-145 prostate) | TGI (EKVX NSCLC) | TGI (HCC-2998 colon) | TGI (HCT-116 colon) | TGI (HCT-15 colon) | TGI (HL-60(TB) leukemia) | TGI (HOP-62 NSCLC) | TGI (HOP-92 NSCLC) | TGI (HS 578T breast) | TGI (HT29 colon) | TGI (IGROV1 ovarian) | TGI (K-562 leukemia) | TGI (KM12 colon) | TGI (M14 melanoma) | TGI (MCF7 breast) | TGI (MDA-MB-231 breast) | TGI (MDA-MB-435) | TGI (MOLT-4 leukemia) | TGI (NCI-H226 lung) | TGI (NCI-H23 lung) | TGI (NCI-H460 lung) | TGI (NCI-H522 lung) | TGI (NCI/ADR-RES ovarian) | TGI (OVCAR-3 ovarian) | TGI (OVCAR-4 ovarian) | TGI (OVCAR-5 ovarian) | TGI (OVCAR-8 ovarian) | TGI (PC-3 prostate) | TGI (RXF 393 renal) | TGI (SF-268 CNS) | TGI (SF-295 CNS) | TGI (SF-539 CNS) | TGI (SK-MEL-2 melanoma) | TGI (SK-MEL-28 melanoma) | TGI (SK-MEL-5 melanoma) | TGI (SK-OV-3 ovarian) | TGI (SN12C renal) | TGI (SNB-19 CNS) | TGI (SNB-75 CNS) | TGI (SW-620 colon) | TGI (T-47D breast) | TGI (TK-10 renal) | TGI (U251 CNS) | TGI (UACC-257 melanoma) | TGI (UACC-62 melanoma) | TGI (UO-31 renal)

— PubChem BioAssay (NCI)
